We go through 13 compounds from PubChem BioAssay (NCI).

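Test compounds were applied to cells in 96-well plates for 48 hours at 5 doses. At the GI50, growth is halved. At the TGI there is no net growth.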

Test systems include U251 CNS; HT29 colon; SW-620 colon; UACC-257 melanoma; SK-MEL-28 melanoma; EKVX NSCLC; 786-0 renal; RPMI-8226 leukemia; OVCAR-4 ovarian; RXF 393 renal.
Holding throughout (assay): growth of human tumour cells (NCI), 48 h

Regarding `COc1cc2c(c(OC)c1OC)-c1[nH]ncc1CC2`, the TGI in the experiment with U251 CNS, with HT29 colon, with SW-620 colon, in the experiment with UACC-257 melanoma, in the experiment on SK-MEL-28 melanoma and in the experiment on EKVX NSCLC was over 100 µM throughout. In the experiment with 786-0 renal, the TGI is over 100 µM.
`COC(=O)C1=Nc2c(C)nn(-c3ccccc3)c2N=C(c2ccc(C)cc2)C1`: the TGI in the experiment with RPMI-8226 leukemia, with U251 CNS, in the experiment on HT29 colon, in the experiment on SW-620 colon, in the experiment with OVCAR-4 ovarian and in the experiment on UACC-257 melanoma was over 10 µM throughout. Besides, the TGI with SK-MEL-28 melanoma and in the experiment on 786-0 renal was over 10 µM throughout.
As to `CC(=O)OC1CC2CCC1(C)C2(C)C` (configuration not stated), the TGI in the experiment with RPMI-8226 leukemia, in the experiment with U251 CNS, with HT29 colon, with SW-620 colon, with OVCAR-4 ovarian and with UACC-257 melanoma was over 100 µM each time. Besides, the TGI with SK-MEL-28 melanoma, in the experiment on 786-0 renal and in the experiment on RXF 393 renal was over 100 µM in each case.
`O=C(OCCOCBr)c1ccccc1`: the TGI with RPMI-8226 leukemia, in the experiment on U251 CNS, in the experiment on HT29 colon, in the experiment with SW-620 colon, in the experiment with OVCAR-4 ovarian and with UACC-257 melanoma was over 100 µM in each case. Moreover, the TGI with SK-MEL-28 melanoma, in the experiment with EKVX NSCLC and in the experiment on 786-0 renal was over 100 µM in each case.
For the compound `COc1ccc2[nH]cc(-c3nc(-c4cn(C)c5ccncc45)cs3)c2c1`, the GI50 is 1.91 µM in the experiment with U251 CNS; 1.53 µM in the experiment with HT29 colon; 1.95 µM in the experiment with SW-620 colon; 2.14 µM in the experiment on OVCAR-4 ovarian; 16.7 µM in the experiment with UACC-257 melanoma; 1.79 µM with SK-MEL-28 melanoma. The GI50 in the experiment with EKVX NSCLC is 1.92 µM; in the experiment with 786-0 renal, 1.54 µM; with RXF 393 renal it was 1.83 µM. Moreover, the TGI with U251 CNS was 3.42 µM; in the experiment with HT29 colon it was 3.33 µM; with SW-620 colon, 3.81 µM; with OVCAR-4 ovarian, 4.51 µM; in the experiment with UACC-257 melanoma, 33.3 µM; in the experiment with SK-MEL-28 melanoma, 3.22 µM. Also, the TGI is 3.92 µM in the experiment with EKVX NSCLC, 2.9 µM in the experiment on 786-0 renal and 3.34 µM with RXF 393 renal.
`COc1ccc(O)c(C(=O)c2ccc(C(=O)O[C@@H]3CCCNC[C@H]3NC(=O)c3ccncc3)cc2)c1F`: the GI50 is 1.25 µM with RPMI-8226 leukemia; 1.17 µM with U251 CNS; 0.944 µM with HT29 colon; 7.9 µM in the experiment with OVCAR-4 ovarian; 2.73 µM with SK-MEL-28 melanoma; 0.403 µM in the experiment on 786-0 renal. In addition, the GI50 in the experiment with RXF 393 renal was 0.162 µM. The TGI was over 25 µM in the experiment on RPMI-8226 leukemia; over 22.7 µM with U251 CNS; over 25 µM with HT29 colon; over 25 µM in the experiment with SW-620 colon; over 25 µM in the experiment on OVCAR-4 ovarian; over 25 µM in the experiment on SK-MEL-28 melanoma. Moreover, the TGI was over 25 µM in the experiment with 786-0 renal and 0.839 µM in the experiment with RXF 393 renal.
For `COc1ccc2c(c1)CC[C@@H]1[C@@H]2CC[C@@]2(C)[C@H]1CC1(CCCCC1)[C@@H]2O`, the GI50 with RPMI-8226 leukemia is 2.81 µM; in the experiment on U251 CNS, 10 µM; in the experiment with HT29 colon, 1.81 µM; in the experiment with OVCAR-4 ovarian it was 13.9 µM; in the experiment with UACC-257 melanoma it was 23.6 µM; in the experiment with SK-MEL-28 melanoma, 14.9 µM. In addition, the figures for the GI50 in the experiment with EKVX NSCLC, with 786-0 renal and with RXF 393 renal were 18.3 µM, 3.81 µM and 4.68 µM, respectively. Besides, the TGI turned out to be 9.35 µM in the experiment with RPMI-8226 leukemia; 24.4 µM with U251 CNS; 4.39 µM in the experiment with HT29 colon; 28.7 µM in the experiment with OVCAR-4 ovarian; 47.2 µM in the experiment with UACC-257 melanoma; 29.5 µM with SK-MEL-28 melanoma. Moreover, the TGI with EKVX NSCLC was 35.5 µM; in the experiment with 786-0 renal it was 14.7 µM; in the experiment on RXF 393 renal, 29.2 µM.
For `Nc1ccc(Nc2nc(F)nc(-c3c4ccccc4c4n3CCS4)n2)cc1`, the TGI turned out to be 31 µM in the experiment with U251 CNS; 27.9 µM in the experiment on SW-620 colon; 29.4 µM with OVCAR-4 ovarian; 33.3 µM in the experiment with SK-MEL-28 melanoma; 48.2 µM with EKVX NSCLC; 32 µM in the experiment on 786-0 renal. Moreover, the TGI in the experiment with RXF 393 renal worked out at 43.3 µM.
With `COC(OC)c1cccc2c1C1(O)CCC3(CC21)OCCCCO3` (configuration not stated), the TGI in the experiment with RPMI-8226 leukemia, in the experiment on U251 CNS, with HT29 colon, with OVCAR-4 ovarian, in the experiment with UACC-257 melanoma and in the experiment with SK-MEL-28 melanoma was over 100 µM throughout. The TGI with 786-0 renal and with RXF 393 renal was over 100 µM throughout.
For the compound `O=C(CCC(=O)Nc1ccc(Cl)cc1)CC(=O)c1ccc(F)cc1`, the TGI with RPMI-8226 leukemia, in the experiment on HT29 colon, with SW-620 colon, in the experiment on OVCAR-4 ovarian, in the experiment on UACC-257 melanoma and with SK-MEL-28 melanoma was over 100 µM each time. Moreover, in the experiment with 786-0 renal, the TGI was over 100 µM.
As to `CCCCC(=O)N/N=C/c1cc(I)cc(I)c1O`, the GI50 in the experiment on RPMI-8226 leukemia was 3.95 µM; in the experiment on U251 CNS it was 1.99 µM; in the experiment with HT29 colon it was 8.46 µM; in the experiment on SW-620 colon, 3.91 µM; in the experiment with OVCAR-4 ovarian it was 0.918 µM; with UACC-257 melanoma, 2.56 µM. For the same compound, the results for the GI50 in the experiment with SK-MEL-28 melanoma, in the experiment on 786-0 renal and in the experiment on RXF 393 renal were 2.85 µM, 3.39 µM and 5.39 µM, respectively. Also, the TGI was 30.1 µM in the experiment on RPMI-8226 leukemia; 16.1 µM in the experiment on U251 CNS; 29.4 µM in the experiment on HT29 colon; over 100 µM in the experiment on SW-620 colon; 12.7 µM in the experiment on OVCAR-4 ovarian; 10.4 µM in the experiment with UACC-257 melanoma. Also, the TGI turned out to be 17.3 µM in the experiment with SK-MEL-28 melanoma, 20.6 µM with 786-0 renal and 27.2 µM in the experiment with RXF 393 renal.
Regarding `O=c1c2ccc3cccc4c(=O)cc(c5ccccc15)-c2c34`, the TGI with U251 CNS, in the experiment on HT29 colon, in the experiment with SW-620 colon, with OVCAR-4 ovarian, in the experiment with UACC-257 melanoma and in the experiment with SK-MEL-28 melanoma was over 100 µM each time. Besides, the TGI with EKVX NSCLC, in the experiment on 786-0 renal and with RXF 393 renal was over 100 µM each time.
Consider `O=C1Nc2ccccc2C1Cc1ccccc1` (configuration not stated), for which the TGI with RPMI-8226 leukemia, in the experiment with U251 CNS, in the experiment with HT29 colon, with SW-620 colon, with OVCAR-4 ovarian and with UACC-257 melanoma was over 100 µM throughout. The TGI in the experiment with SK-MEL-28 melanoma, in the experiment on EKVX NSCLC and in the experiment on 786-0 renal was over 100 µM in each case.
